Data published in patent US4593093A, “Acyl derivatives” (priority 1980, dated 1986).
Where a name gives a salt, the structure may show the parent alone. Read-outs that look alike come from different tables or passages of the source.

Columns and labels:
[1] = test system: Escherichia coli; experiment: Activity in vitro: minimum inhibitory concentration; format: cell-based
[2] = test system: Proteus mirabilis; experiment: as above; format: cell-based
[3] = test system: Proteus morganii; experiment: as above; format: cell-based; conditions: Morganella morganii
[4] = test system: Proteus rettgeri; experiment: as above; format: cell-based; conditions: Providencia rettgeri
[5] = test system: Proteus inconstans; experiment: as above; format: cell-based; conditions: Providencia alcalifaciens
[6] = test system: Klebsiella pseumoniae; experiment: as above; format: cell-based
[7] = test system: Serratia marcescens; experiment: as above; format: cell-based
[8] = test system: Enterobacter cloacae; experiment: as above; format: cell-based
[9] = test system: Enterobacter aerogenes; experiment: as above; format: cell-based; conditions: Klebsiella aerogenes
[10] = test system: Citrobacter freundii; experiment: as above; format: cell-based
[11] = test system: Pseudomonas aeruginosa; experiment: as above; format: cell-based
[12] = test system: Staphylococcus aureus; experiment: as above; format: cell-based
[13] = test system: Staphylococcus epidermis; experiment: as above; format: cell-based
[14] = test system: Streptococcus faecalis; experiment: as above; format: cell-based; conditions: Enterococcus faecalis
[15] = test system: Streptococcus pyogenes; experiment: as above; format: cell-based
[16] = test system: Streptococcus pneumoniae; experiment: as above; format: cell-based
[17] = test system: Streptococcus viridans; experiment: as above; format: cell-based
[18] = test system: Enterobacter cloacae; experiment: Activity in vivo: survival of intraperitoneally infected mice; conditions: sc, 96 h; mice infected i.p. with Enterobacter cloacae; s.c. twice, 1 h and 3 h after infection; survival on 4th day; read-out: CD50 (dosage at which 50% of the animals survive)
Experimental: (§1) Groups of 5 mice are infected intraperitoneally with an aqueous suspension of various pathogens. The test substance in physiological sodium chloride solution is administered subcutaneously twice, i.e. 1 hour and 3 hours after the infection. The number of surviving animals is determined on the 4th day. Various dosages are administered and that dosage at which 50% of the experimental animals survive (CD50, mg/kg) is determined by interpolation.

[19] = test system: Escherichia coli; experiment: as above; conditions: sc, 96 h; mice infected i.p. with Escherichia coli; s.c. twice, 1 h and 3 h after infection; survival on 4th day; read-out: CD50 (dosage at which 50% of the animals survive)
Experimental: as §1

[20] = test system: Serratia marcescens; experiment: as above; conditions: sc, 96 h, mice infected i.p. with Serratia marcescens strain 1, s.c. twice, 1 h and 3 h after infection, survival on 4th day, read-out: CD50 (dosage at which 50% of the animals survive)
Experimental: as §1

[21] = test system: Streptococcus pyogenes; experiment: as above; conditions: sc, 96 h; mice infected i.p. with Streptococcus pyogenes; s.c. twice, 1 h and 3 h after infection; survival on 4th day; read-out: CD50 (dosage at which 50% of the animals survive)
Experimental: as §1

[22] = test system: Pseudomonas aeruginosa; experiment: as above; conditions: sc, 96 h; mice infected i.p. with Pseudomonas aeruginosa; s.c. three times, 1 h, 3 h and 5 h after infection; survival on 4th day; read-out: CD50 (dosage at which 50% of the animals survive)
Experimental: as §1
*Administered subcutaneously three times: 1 hour, 3 hours and 5 hours

[23] = Enterobacter aerogenes strain 1
[24] = Enterobacter aerogenes strain 2
[25] = Pseudomonas aeruginosa strain 3
[26] = Streptococcus faecalis strain 1
[27] = Streptococcus faecalis strain 2
[28] = Streptococcus pyogenes strain 1, read-out: Minimum inhibitory concentration
[29] = read-out: Minimum inhibitory concentration, Streptococcus pyogenes strain 2

`CC(=O)OCC1=C(C(=O)O)N2C(=O)[C@@H](NC(=O)/C(=N\OC(C)(C)C(=O)O)c3c[se]c(N)n3)[C@H]2SC1` [Product I, disodium salt] showed an MIC ([1]; Escherichia coli strain 1) of 1.6 µg/mL, an MIC ([1]; Escherichia coli strain 2) of 0.2 µg/mL and an MIC ([1]; Escherichia coli strain 3) of 0.8 µg/mL. For the same compound, the MIC ([1]; Escherichia coli strain 5) was 0.4 µg/mL, the MIC ([2]; Proteus mirabilis strain 3) was 0.1 µg/mL and the MIC ([2]; Proteus mirabilis strain 4) was 0.1 µg/mL. For the same compound, the MIC ([2]; Proteus mirabilis strain 5) was 0.2 µg/mL, the MIC [3] was 0.8 µg/mL and the MIC [4] was 0.1 µg/mL. For the same compound, the MIC [5] was 0.012 µg/mL, the MIC ([6]; Klebsiella pseumoniae strain 1) was 0.8 µg/mL and the MIC ([6]; Klebsiella pseumoniae strain 2) was 0.4 µg/mL. For the same compound, the MIC ([6]; Klebsiella pseumoniae strain 3) was 0.8 µg/mL, the MIC ([7]; Serratia marcescens strain 1) was 1.6 µg/mL and the MIC ([7]; Serratia marcescens strain 2) was 3.1 µg/mL. The MIC ([7]; Serratia marcescens strain 3) was 0.4 µg/mL, the MIC ([8]; Enterobacter cloacae strain 1) was greater than 100 µg/mL and the MIC ([8]; Enterobacter cloacae strain 2) was 6.3 µg/mL. For the same compound, the MIC ([8]; Enterobacter cloacae strain 3) was greater than 100 µg/mL, the MIC [9, 23] was 0.4 µg/mL and the MIC [9, 24] was 0.2 µg/mL. For the same compound, the MIC ([10]; Citrobacter freundii strain 1) was 100 µg/mL, the MIC ([10]; Citrobacter freundii strain 2) was 1.6 µg/mL and the MIC [11, 25] was 1.6 µg/mL. It also gave an MIC ([12]; Staphylococcus aureus strain 1) of 50 µg/mL, an MIC ([12]; Staphylococcus aureus strain 2) of 100 µg/mL and an MIC ([12]; Staphylococcus aureus strain 3) of 50 µg/mL. The MIC ([12]; Staphylococcus aureus strain 4) was 100 µg/mL, the MIC [13] was 50 µg/mL and the MIC [14, 26] was greater than 100 µg/mL. For the same compound, the MIC [14, 27] was greater than 100 µg/mL, the MIC [15, 28] was 0.2 µg/mL and the MIC ([15]; Streptococcus pyogenes strain 2, read-out: Minimum inhibitory concentration) was 0.05 µg/mL. The MIC [16] was 0.2 µg/mL, the MIC [17] was 6.3 µg/mL and the ED50 [18] was greater than 50 mg/kg. The ED50 [19] was 0.067 mg/kg, the ED50 [20] was 1.8 mg/kg and the ED50 [21] was 2.7 mg/kg. The ED50 [22] was 23 mg/kg.

For `CC(C)(O/N=C(\C(=O)N[C@@H]1C(=O)N2C(C(=O)[O-])=C(C[n+]3ccccc3)CS[C@H]12)c1c[se]c(N)n1)C(=O)O` [Product K, 1-[[(6R, 7R)-7-[(Z)-2-(2-amino-4-selenazolyl)-2-[(1-carboxy-1-methylethoxy)imino]acetamido]-2-carboxy-8-oxo-5-thia-1-azabicyclo[4.2.0]oct-2-en-3-yl]methyl]pyridinium hydroxide sodium salt (internal salt)], the MIC ([1]; Escherichia coli strain 1) was 0.4 µg/mL, the MIC ([1]; Escherichia coli strain 2) was 0.1 µg/mL and the MIC ([1]; Escherichia coli strain 3) was 0.8 µg/mL. For the same compound, the MIC ([1]; Escherichia coli strain 4) was 25 µg/mL, the MIC ([1]; Escherichia coli strain 5) was 0.4 µg/mL and the MIC ([2]; Proteus mirabilis strain 3) was 0.4 µg/mL. The MIC ([2]; Proteus mirabilis strain 4) was 0.1 µg/mL, the MIC ([2]; Proteus mirabilis strain 5) was 0.05 µg/mL and the MIC [3] was 0.2 µg/mL. The MIC [5] was 0.05 µg/mL, the MIC ([6]; Klebsiella pseumoniae strain 1) was 0.8 µg/mL and the MIC ([6]; Klebsiella pseumoniae strain 2) was 0.2 µg/mL. For the same compound, the MIC ([6]; Klebsiella pseumoniae strain 3) was 0.8 µg/mL, the MIC ([7]; Serratia marcescens strain 1) was 0.8 µg/mL and the MIC ([7]; Serratia marcescens strain 2) was 0.8 µg/mL. The MIC ([7]; Serratia marcescens strain 3) was 0.1 µg/mL, the MIC ([8]; Enterobacter cloacae strain 1) was greater than 100 µg/mL and the MIC ([8]; Enterobacter cloacae strain 2) was 1.6 µg/mL. For the same compound, the MIC ([8]; Enterobacter cloacae strain 3) was 100 µg/mL, the MIC [9, 23] was 0.4 µg/mL and the MIC [9, 24] was 0.2 µg/mL. The MIC ([10]; Citrobacter freundii strain 1) was 12.5 µg/mL, the MIC ([10]; Citrobacter freundii strain 2) was 0.4 µg/mL and the MIC [11, 25] was 1.6 µg/mL. For the same compound, the MIC ([12]; Staphylococcus aureus strain 1) was 12.5 µg/mL, the MIC ([12]; Staphylococcus aureus strain 2) was 50 µg/mL and the MIC ([12]; Staphylococcus aureus strain 3) was 12.5 µg/mL. It also gave an MIC ([12]; Staphylococcus aureus strain 4) of 12.5 µg/mL, an MIC [13] of 12.5 µg/mL and an MIC [14, 26] greater than 100 µg/mL. For the same compound, the MIC [14, 27] was greater than 100 µg/mL, the MIC [15, 28] was 0.4 µg/mL and the MIC [15, 29] was 0.1 µg/mL. For the same compound, the MIC [16] was 0.1 µg/mL, the MIC [17] was 3.1 µg/mL and the ED50 [20] was 0.11 mg/kg. The ED50 [21] was 0.28 mg/kg and the ED50 [22] was 1.1 mg/kg.

For `CC(=O)OCC1=C(C(=O)[O-])N2C(=O)[C@@H](NC(=O)/C(=N\O)c3c[se]c(N)n3)[C@H]2SC1.[Na+]` [Product L, (6R, 7R)-3-(acetoxymethyl)-7-[2-(2-amino-4-selenazolyl)-2-[(Z)-hydroxyimino]-acetamido]-8-oxo-5-thia-1-azabicyclo[4.2.0]oct-2-ene-2-carboxylic acid sodium salt], the MIC ([1]; Escherichia coli strain 1) was no more than 0.025 µg/mL, the MIC ([1]; Escherichia coli strain 2) was no more than 0.025 µg/mL and the MIC ([1]; Escherichia coli strain 3) was 1.6 µg/mL. The MIC ([1]; Escherichia coli strain 4) was 6.3 µg/mL, the MIC ([1]; Escherichia coli strain 5) was 0.1 µg/mL and the MIC ([2]; Proteus mirabilis strain 3) was no more than 0.025 µg/mL. It also gave an MIC ([2]; Proteus mirabilis strain 4) of 0.05 µg/mL, an MIC ([2]; Proteus mirabilis strain 5) of 0.05 µg/mL and an MIC [3] of 0.4 µg/mL. It also gave an MIC [5] of no more than 0.025 µg/mL, an MIC ([6]; Klebsiella pseumoniae strain 1) of no more than 0.025 µg/mL and an MIC ([6]; Klebsiella pseumoniae strain 2) of no more than 0.025 µg/mL. It also gave an MIC ([6]; Klebsiella pseumoniae strain 3) of no more than 0.025 µg/mL, an MIC ([7]; Serratia marcescens strain 1) of 0.8 µg/mL and an MIC ([7]; Serratia marcescens strain 2) of 1.6 µg/mL. The MIC ([7]; Serratia marcescens strain 3) was 0.1 µg/mL, the MIC ([8]; Enterobacter cloacae strain 1) was 200 µg/mL and the MIC ([8]; Enterobacter cloacae strain 2) was 6.3 µg/mL. The MIC ([8]; Enterobacter cloacae strain 3) was 25 µg/mL, the MIC [9, 23] was no more than 0.025 µg/mL and the MIC [9, 24] was 0.4 µg/mL. It also gave an MIC ([10]; Citrobacter freundii strain 1) of 3.1 µg/mL, an MIC ([10]; Citrobacter freundii strain 2) of 0.025 µg/mL and an MIC ([11]; Pseudomonas aeruginosa strain 1) of 50 µg/mL. For the same compound, the MIC [11, 25] was 12.5 µg/mL, the MIC ([12]; Staphylococcus aureus strain 1) was 0.2 µg/mL and the MIC ([12]; Staphylococcus aureus strain 2) was 0.4 µg/mL. For the same compound, the MIC ([12]; Staphylococcus aureus strain 3) was 0.4 µg/mL, the MIC ([12]; Staphylococcus aureus strain 4) was 0.4 µg/mL and the MIC [13] was 0.4 µg/mL. It also gave an MIC [14, 26] of 25 µg/mL, an MIC [14, 27] of 25 µg/mL and an MIC [15, 28] of 0.05 µg/mL. It also gave an MIC [15, 29] of no less than 0.025 µg/mL, an MIC [16] of 0.1 µg/mL and an MIC [17] of 0.8 µg/mL. It also gave an ED50 [21] of 0.08 mg/kg.
